Test [1] deals with T1, cloned human 5-HT1A receptors (Homo sapiens, UniProt P08908).
T1 construct: expressed in transfected cells; host or cells: HeLa cells (HA7), stably transfected; cell homogenate
T1 sequence (P08908 1-422): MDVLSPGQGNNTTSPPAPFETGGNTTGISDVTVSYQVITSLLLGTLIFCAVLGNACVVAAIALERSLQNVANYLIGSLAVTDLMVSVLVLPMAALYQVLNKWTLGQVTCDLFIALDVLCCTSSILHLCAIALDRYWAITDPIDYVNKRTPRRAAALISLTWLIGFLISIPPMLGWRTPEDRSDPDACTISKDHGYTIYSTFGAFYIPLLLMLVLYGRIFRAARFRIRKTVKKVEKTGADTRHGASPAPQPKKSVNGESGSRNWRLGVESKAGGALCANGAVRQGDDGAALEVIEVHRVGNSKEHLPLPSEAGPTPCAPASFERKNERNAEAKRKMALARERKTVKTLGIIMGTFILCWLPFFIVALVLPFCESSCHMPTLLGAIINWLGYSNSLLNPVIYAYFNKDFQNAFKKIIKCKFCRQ
As to the kind of experiment: Inhibition of 3H-5-CT binding to human 5-HT1A receptors. To be noted: cloned human 5-HT1A receptors expressed in HeLa cells (HA7). The method, then:
Inhibition of ^3H-5CT Binding to Human 5-HT1A Receptors
Human 5-HT1A receptors (40 μg of cell homogenate) were incubated for 15 minutes at 37° C. in 50 mM Tris buffer at pH 7.7 in the presence of ^3H-5-CT. Non-specific binding was determined by including 10 μM of metergoline. The reaction was terminated by rapid filtration through Unifilter GF/B filters on a Tomtec Cell Harvester. Filters were counted in a Packard Top Counter.

The subject of test [2] is serotonin reuptake (3H-5-HT uptake into whole rat brain synaptosomes). As to the kind of experiment: Inhibition of 3H-5-HT uptake into rat brain synaptosomes. Format: biochemical. The method, then: Inhibition of ^3H-5HT Uptake Into Rat Brain Synaptosomes
Using this method, the ability of drugs to inhibit the accumulation of ^3H-5-HT into whole rat brain synaptosomes is determined in vitro.

The source of these data is US6492374B2, “Benzofuran derivatives, their preparation and use” (H. Lundbeck A/S, priority 1998, dated 2002).

Regarding `C=CCN(CCCC1(c2ccc(F)cc2)OCc2cc(C#N)ccc21)CCc1cc(OC)ccc1OC` (centres unmarked) [Compound 4f, 1-[3-[[2-(2,5-Dimethoxyphenyl)ethyl](prop-2-en-1-yl)amino]propyl]-1-(4-fluorophenyl)-1,3-dihydroisobenzofuran-5-carbonitrile], the IC50 (commonly the midpoint of a concentration-inhibition curve) in test [1] was determined as 1.6 nM. Besides, the “Inhibition of serotonin reuptake % inhibition at 100 nM” value in test [2] amounted to 4% inh. at 100 nM.

With `CN(CCCC1(c2ccc(F)cc2)OCc2cc(C#N)ccc21)CCOc1ccccc1` (centres unmarked) [Compound 4g, 1-(4-Fluorophenyl)-1-[3-[[2-phenoxyethyl]methylamino]propyl]-1,3-dihydroisobenzofuran-5carbonitrile], the IC50 in test [1] worked out at 18 nM. The “Inhibition of serotonin reuptake % inhibition at 100 nM” value in test [2] is listed as 28% inh. at 100 nM.

As for `C=CCN(CCCC1(c2ccc(F)cc2)OCc2cc(C#N)ccc21)CCc1c[nH]c2ccccc12` (centres unmarked) [Compound 4h, 1-[3-[[2-(1H-Indolyl-3-yl)ethyl](prop-2-en-1-yl)amino]propyl]-1-(4-fluorophenyl) 1,3-dihydroisobenzofuran-5carbonitrile], the figures for the IC50 in test [1] and in test [2] were 3.2 nM and 69 nM, respectively.

On to `C=CCN(CCCC1(c2ccc(F)cc2)OCc2cc(C#N)ccc21)CCOc1ccccc1` (centres unmarked) [Compound 4i, 1-(4-Fluorophenyl)-1-[3-[[2-phenoxyethyl](prop-2-en-1-yl)amino]propyl]-1,3-dihydroisobenzofuran-5carbonitrile], for which the IC50 in test [1] stood at 1.9 nM. Besides, in test [2], the “Inhibition of serotonin reuptake % inhibition at 100 nM” value amounted to 26% inh. at 100 nM.

For `COc1ccccc1CCCN(C)CCCC1(c2ccc(F)cc2)OCc2cc(C#N)ccc21` (centres unmarked) [Compound 4j, 1-(4Fluorophenyl)-1-[3-[[3-(2-methoxyphenyl)propyl]methylamino]propyl]-1,3-dihydroisobenzofuran-5-carbonitrile], the values for the IC50 in test [1] and in test [2] were 6.1 nM and 78 nM, respectively.

In the case of `C=CCN(CCCc1ccccc1OC)CCCC1(c2ccc(F)cc2)OCc2cc(C#N)ccc21` (centres unmarked) [Compound 4k, 1-(4-Fluorophenyl)-1-[3-[[3-(2-methoxyphenyl)propyl](prop-2-en-1-yl)amino]propyl]-1,3-dihydroisobenzofuran-5-carbonitrile], the IC50 in test [1] stood at 0.42 nM; in test [2], 100 nM.

The molecule `C=CCN(CCCOc1ccccc1OC)CCCC1(c2ccc(F)cc2)OCc2cc(C#N)ccc21` (centres unmarked) [Compound 4n, 1-(4-Fluorophenyl)-1-[3-[[3-(2-methoxyphenoxy)propyl](prop-2-en-1-yl)amino]propyl]-1,3-dihydroisobenzofuran-5-carbonitrile] came in with an IC50 in test [1] of 14 nM. For the same molecule, in test [2], the “Inhibition of serotonin reuptake % inhibition at 100 nM” value is reported as 39% inh. at 100 nM.

Consider `COc1cccc(OCCCN(C)CCCC2(c3ccc(F)cc3)OCc3cc(C#N)ccc32)c1` (centres unmarked) [Compound 4o, 1-(4-Fluorophenyl)-1-[3-[[3-(3-methoxyphenoxy)propyl]methylamino]propyl]-1,3-dihydroisobenzofuran-5-carbonitrile], for which the IC50 amounted to 26 nM in test [1] and 73 nM in test [2].

In test [1], `C=CCN(CCCOc1cccc(OC)c1)CCCC1(c2ccc(F)cc2)OCc2cc(C#N)ccc21` (centres unmarked) [Compound 4p] had an IC50 of 19 nM. Besides, the “Inhibition of serotonin reuptake % inhibition at 100 nM” value in test [2] turned out to be 6% inh. at 100 nM.

The molecule `CN(CCCC1(c2ccc(F)cc2)OCc2cc(C#N)ccc21)CCOCc1ccccc1` (centres unmarked) [Compound 4q, 1-[3-[(2-Benzyloxyethyl)methylamino]propyl]-1-(4-fluorophenyl)-1,3-dihydroisobenzofuran-5-carbonitrile] yielded an IC50 in test [1] of 16 nM. The “Inhibition of serotonin reuptake % inhibition at 100 nM” value in test [2] came to 60% inh. at 100 nM.

`C=CCN(CCCC1(c2ccc(F)cc2)OCc2cc(C#N)ccc21)CCOCc1ccccc1` (centres unmarked) [Compound 4r, 1-[3-[(2-Benzyloxyethyl)(prop-2-en-1-yl)amino]propyl]-1-(4-fluorophenyl)-1,3-dihydroisobenzofuran-5-carbonitrile]: in test [1], the IC50 came to 11 nM. Further, the “Inhibition of serotonin reuptake % inhibition at 100 nM” value in test [2] worked out at 19% inh. at 100 nM.

On to `CN(CCCc1c[nH]c2ccccc12)CCCC1(c2ccc(F)cc2)OCc2cc(C#N)ccc21` (centres unmarked) [Compound 4s, 1-[3-[[3-(1H-Indol-3-yl)propyl]methylamino]propyl]-1-(4-fluorophenyl)-1,3-dihydroisobenzofuran-5-carbonitrile], for which the IC50 in test [1] worked out at 30 nM; in test [2] it was 35 nM.

In the case of `C=CCN(CCCc1c[nH]c2ccccc12)CCCC1(c2ccc(F)cc2)OCc2cc(C#N)ccc21` (centres unmarked) [Compound 4t, 1-[3-[[3-(1H-Indol-3-yl)propyl](prop-2-en-1-yl)amino]propyl]-1-(4-fluorophenyl)-1,3-dihydroisobenzofuran-5-carbonitrile], the inhibition (usually the relative decrease from the control value, in per cent) at 0.1 µM in test [1] (read-out: Inhibition of 3H-5-CT binding % inhibition at 100 nM, at 100 nM) worked out at 69%. Further, the “Inhibition of serotonin reuptake % inhibition at 100 nM” value in test [2] was 73% inh. at 100 nM.

For the molecule `CN(CCCc1c[nH]c2ccc(Br)cc12)CCCC1(c2ccc(F)cc2)OCc2cc(C#N)ccc21` (centres unmarked) [Compound 12aa, 1-[3-[[3-(5-Bromo-1H-indol-3-yl)propyl]methylamino]propyl]-1-(4-fluorophenyl)-1,3-dihydroisobenzofuran-5-carbonitrile], the IC50 in test [1] was found to be 16 nM. The “Inhibition of serotonin reuptake % inhibition at 100 nM” value in test [2] is 37% inh. at 100 nM.

`CCN(CCCC1(c2ccc(F)cc2)OCc2cc(C#N)ccc21)CCc1c[nH]c2ccc(Br)cc12` (centres unmarked) [Compound 12ab, 1-[3-[[2-(5-Bromo-1H-indol-3-yl)ethyl]ethylamino]propyl]-1-(4-fluorophenyl)-1,3-dihydroisobenzofuran-5-carbonitrile]: in test [1], the IC50 was 20 nM. In test [2], the “Inhibition of serotonin reuptake % inhibition at 100 nM” value came out at 50% inh. at 100 nM.

With `CCN(CCCc1c[nH]c2ccc(Br)cc12)CCCC1(c2ccc(F)cc2)OCc2cc(C#N)ccc21` (centres unmarked) [Compound 12ad, 1-(3-[[3-(5-Bromo-1H-indol-3-yl)propyl]ethylamino]propyl]-1-(4fluorophenyl)-1,3-dihydroisobenzofuran-5-carbonitrile], in test [1], the IC50 is 21 nM. Moreover, the “Inhibition of serotonin reuptake % inhibition at 100 nM” value in test [2] is reported as 35% inh. at 100 nM.

`CCN(CCCC1(c2ccc(F)cc2)OCc2cc(C#N)ccc21)CCc1c[nH]c2ccc(I)cc12` (centres unmarked) [Compound 12ae] showed an IC50 in test [1] of 11 nM. The “Inhibition of serotonin reuptake % inhibition at 100 nM” value in test [2] is 49% inh. at 100 nM.

Molecule `CCN(CCCc1c[nH]c2ccc(I)cc12)CCCC1(c2ccc(F)cc2)OCc2cc(C#N)ccc21` (centres unmarked) [Compound 12af, 1-[3-[Ethyl[3-(5-iodo-1H-indol-3-yl)propyl]amino]propyl]-1-(4-fluorophenyl)-1,3-dihydroisobenzofuran-5-carbonitrile] came in with an IC50 in test [1] of 31 nM. The “Inhibition of serotonin reuptake % inhibition at 100 nM” value in test [2] stood at 38% inh. at 100 nM.

For the molecule `Cc1ccc2[nH]cc(CCCN(C)CCCC3(c4ccc(F)cc4)OCc4cc(F)ccc43)c2c1` (centres unmarked) [Compound 12c, 5-Fluoro-1-[3-[[3-(5-methyl-1H-indol-3-yl)propyl]methylamino]propyl]-1-(4-fluorophenyl)-1,3-dihydroisobenzofuran], the concentration for half-maximal inhibition (IC50) in test [1] amounted to 19 nM; in test [2] it was 17 nM.

Consider `CN(CCCc1c[nH]c2c(F)cccc12)CCCC1(c2ccc(F)cc2)OCc2cc(F)ccc21` (centres unmarked) [Compound 12d, 5-Fluoro-1-[3-[[3-(7-fluoro-1H-indol-3-yl)propyl]methylamino]propyl]-1-(4-fluorophenyl)-1,3dihydroisobenzofuran], for which the IC50 was 31 nM in test [1] and 12 nM in test [2].

Consider `CCN(CCCc1c[nH]c2ccccc12)CCCC1(c2ccc(F)cc2)OCc2cc(C#N)ccc21` (centres unmarked) [Compound 12f], for which the IC50 was 4.7 nM in test [1] and 13 nM in test [2].

As for `CN(CCCc1c[nH]c2ccc(F)cc12)CCCC1(c2ccc(F)cc2)OCc2cc(C#N)ccc21` (centres unmarked) [Compound 12i, 1-[3-[[3-(5-Fluoro-1H-indol-3-yl)propyl]methylamino]propyl]-1-(4-fluorophenyl)-1,3-dihydroisobenzofuran-5-carbonitrile], the IC50 in test [1] is 27 nM; in test [2], 20 nM.

As to `CCN(CCCC1(c2ccc(F)cc2)OCc2cc(C#N)ccc21)CCc1c[nH]c2ccc(F)cc12` (centres unmarked) [Compound 12j, 1-[3-[Ethyl[2-(5-fluoro-1H-indol-3-yl)ethyl]amino]propyl]-1-(4fluorophenyl)-1,3-dihydroisobenzofuran-5-carbonitrile], the IC50 in test [1] was 7.9 nM; in test [2], 14 nM.

For the molecule `CCN(CCCC1(c2ccc(F)cc2)OCc2cc(C#N)ccc21)CCc1c[nH]c2c(F)cccc12` (centres unmarked) [Compound 12k], the values for the IC50 in test [1] and in test [2] were 3.6 nM and 8.4 nM, respectively.

`CCN(CCCc1c[nH]c2ccc(C)cc12)CCCC1(c2ccc(F)cc2)OCc2cc(C#N)ccc21` (centres unmarked) [Compound 12o, 1-[3-[Ethyl[3-(5-methyl-1H-indol-3-yl)propyl]amino]propyl]-1-(4-fluorophenyl)-1,3-dihydroisobenzofuran-5-carbonitrile] registered an IC50 in test [1] of 6.2 nM. Besides, the “Inhibition of serotonin reuptake % inhibition at 100 nM” value in test [2] came to 49% inh. at 100 nM.
